In patent US20240279710A1, “FLUORESCENT PROBES” (TOHOKU TECHNO ARCH CO., LTD., priority 2021, published 2024):

How the values were obtained:
SH-SY5Y cells = experiment: Combined use with calpain inhibitor in live cell imaging; format: cell-based; settings: inhibitor 10 μM, 5 μM Compound 19, SH-SY5Y cells; FIG. 30
Description: Whether or not the improvement in enzymatic reactivity between the compound of the present invention and a calpain confirmed by the above-mentioned experiment remained the same even in a cell was verified. Calpain activity imaging in SH-SY5Y cells was performed on each of Compounds 16 and 19. Specifically, the SH-SY5Y cells (American Type Culture Collection, VA, USA) were cultured in a mixed medium of Dulbecco's modified eagle medium and Ham's F-12 medium (DMEM/F-12; Thermo Fisher Scientific, Inc.) (containing 10% fetal bovine serum (FBS; Thermo Fisher Scientific, Inc., MA, USA) and 100 U/mL penicillin-100 μg/mL streptomycin (PS; Thermo Fisher Scientific, Inc.)) under the conditions of 37° C. and 5% CO2-95% air. 6×10^4 to 8×10^4 Cells/well of the cells were seeded in a multiwell plate (μ-Plate 96 Well; ibidi, Grafelfing, Germany) coated with poly-D-lysine (Thermo Fisher Scientific, Inc.) and laminin (BD Biosciences, CA, USA), and were preincubated in a culture solution. Immediately after the removal of the culture solution in the wells, 200 μL of an assay solution (a culture solution containing a 5 μM probe) was added thereto, and the cells were incubated under the conditions of 37° C. and 5% CO2-95% air. 10 Minutes after that, a bright field image and a fluorescence image were taken with a confocal microscope (LSM 710, Carl Zeiss AG, Oberkochen, Germany). […]

calpain = experiment: Combined use with calpain inhibitor in rat NMDA model (Compound 19 as probe); format: in vivo
Description: (§1) Carboxymethylcellulose sodium was dissolved in distilled water to prepare a 0.5% (w/v) CMC solution. An inhibitor-containing CMC solution was prepared by suspending SNJ-1945 in the 0.5% (w/v) CMC solution so that its concentration became 2.5% (w/v). Rats were each subjected to general anesthesia with isoflurane, and NMDA (10 mM, 2 μL) was administered into an eye of the rat. 2 Hours after the administration of NMDA, the inhibitor-containing CMC solution was intraperitoneally administered to the rat so that the dose of SNJ-1945 became 100 mg/kg body weight. 4 Hours after the administration of the inhibitor (6 hours after the administration of NMDA), the rat was anesthetized with isoflurane again, and Compound 19 (15 μM, 4 μL) was administered into the eye. Images of an ocular fundus were taken with F-10 20 minutes to 30 minutes after the administration of Compound 19. In a control group (N=8), the same operations as those in an SNJ-1945-administered group (N=8) except the following were performed: the 0.5% (w/v) CMC solution was administered instead of the inhibitor-containing CMC solution.
as §1, with “orally” for “intraperitoneally”, “(N=7),” for “(N=8),”
Carboxymethylcellulose sodium was dissolved in distilled water to prepare a 0.5% (w/v) CMC solution. An inhibitor-containing CMC solution was prepared by suspending SNJ-1945 in the 0.5% (w/v) CMC solution so that its concentration became 2.5% (w/v). The inhibitor-containing CMC solution was intraperitoneally administered to each of rats so that the dose of SNJ-1945 became 100 mg/kg body weight. 2 Hours after the intraperitoneal administration, the rat was subjected to general anesthesia with isoflurane, and NMDA (10 mM, 2 μL) was administered into an eye thereof. […]

SMILES: COCCOCCOC(=O)N[C@@H](CC(C)C)C(=O)N[C@@H](Cc1ccccc1)C(=O)C(=O)NC1CC1 [SNJ-1945]
- intracellular fluorescence intensity (Compound 19 probe) with vs without inhibitor (SH-SY5Y cells): attenuates
- number of HMRG-positive nerve cells compared to control group (calpain; 100 mg/kg intraperitoneally 2 hours after NMDA, Compound 19 (15 μM, 4 μL) 4 hours later, FIG. 32): significantly reduced
- number of HMRG-positive nerve cells compared to control group (calpain; 100 mg/kg intraperitoneally 2 hours before NMDA, Compound 19 (15 μM, 4 μL) 6 hours after NMDA, FIG. 34): significantly reduced
- number of HMRG-positive nerve cells compared to control group (calpain; 100 mg/kg orally 2 hours after NMDA, Compound 19 (15 μM, 4 μL) 4 hours later, FIG. 33): significantly reduced
- number of HMRG-positive nerve cells compared to group administered any other calpain inhibitor (C2I, MDL 28,170, PD-151746) (calpain; orally as in Example 16, FIG. 35): significantly reduced
